Laboratory results as given in patent US8399378B2, “Use of neonicotinoids in pest control” (Syngenta Crop Protection LLC, priority 1998, dated 2013).

Experiments:
Type in all cases: in vivo
Anthonomus grandis = assay: Spray test on young cotton plants, action against Anthonomus grandis adults; settings: spray 100, 50, 10, 5, 1 ppm, evaluation 3 to 10 days
Source text: (§1) Young transgenic cotton plants which express the δ-endotoxin CryIIIA are sprayed with an aqueous emulsion spray mixture comprising 100, 50, 10, 5, 1 ppm of imidacloprid respectively. After the spray coating has dried on, the cotton plants are populated with 10 adult Anthonomus grandis, 10 Spodoptera littoralis larvae or 10 Heliothis virescens larvae respectively and introduced into a plastic container. Evaluation takes place 3 to 10 days later.
(§2) Young transgenic cotton plants which express the δ-endotoxin CryIIIA are sprayed with an aqueous emulsion spray mixture comprising 100, 50, 10, 5, 1 ppm of thiamethoxam respectively. After the spray coating has dried on, the cotton plants are populated with 10 adult Anthonomus grandis, 10 Spodoptera littoralis larvae or 10 Heliothis virescens larvae respectively and introduced into a plastic container. Evaluation takes place 3 to 10 days later.
Young transgenic cotton plants which express the δ-endotoxin CryIIIA are sprayed with an aqueous emulsion spray mixture comprising 100, 50, 10, 5, 1 ppm of Ti-435 respectively. After the spray coating has dried on, the cotton plants are populated with 10 adult Anthonomus grandis, 10 Spodoptera littoralis larvae or 10 Heliothis virescens larvae respectively and introduced into a plastic container. Evaluation takes place 3 to 10 days later.
Young transgenic cotton plants which express the δ-endotoxin CryIa(c) are sprayed with an aqueous emulsion spray mixture comprising 100, 50, 10, 5, 1 ppm of Ti-435 respectively. After the spray coating has dried on, the cotton plants are populated with 10 adult Anthonomus grandis, 10 Spodoptera littoralis larvae or 10 Heliothis virescens larvae respectively and introduced into a plastic container. Evaluation takes place 3 to 10 days later.
Young transgenic cotton plants which express the δ-endotoxin CryIa(c) are sprayed with an aqueous emulsion spray mixture comprising 100, 50, 10, 5, 1 ppm of thiamethoxam respectively. After the spray coating has dried on, the cotton plants are populated with 10 adult Anthonomus grandis, 10 Spodoptera littoralis larvae or 10 Heliothis virescens larvae respectively and introduced into a plastic container. Evaluation takes place 3 to 10 days later.
Young transgenic cotton plants which express the δ-endotoxin CryIa(c) are sprayed with an aqueous emulsion spray mixture comprising 100, 50, 10, 5, 1 ppm of imidacloprid respectively. After the spray coating has dried on, the cotton plants are populated with 10 adult Anthonomus grandis, 10 Spodoptera littoralis larvae or 10 Heliothis virescens larvae respectively and introduced into a plastic container. Evaluation takes place 3 to 10 days later.

Heliothis virescens = assay: Spray test on young cotton plants, action against Heliothis virescens larvae; settings: spray 100, 50, 10, 5, 1 ppm, evaluation 3 to 10 days
Source text: as §1, §2
Young transgenic cotton plants which express the δ-endotoxin CryIIIA are sprayed with an aqueous emulsion spray mixture comprising 100, 50, 10, 5, 1 ppm of Ti-435 respectively. After the spray coating has dried on, the cotton plants are populated with 10 adult Anthonomus grandis, 10 Spodoptera littoralis larvae or 10 Heliothis virescens larvae respectively and introduced into a plastic container. Evaluation takes place 3 to 10 days later. […]

Nephotettix cincticeps = assay: Rice plant spray test, action against Nephotettix cincticeps; settings: 20° C, 21 days; for control (percentage reduction in population, % action): spray 400 ppm, 2nd and 3rd stages; for control level: plot (b) conventional rice plants, 400 ppm compound
Experimental: Rice plants on a plot (a) expressing the δ-endotoxin CryIA(b) and conventional rice plants on a plot (b) are sprayed with a spray mixture comprising 400 ppm thiamethoxam. Immediately afterwards, plot (b) is treated with an emulsion spray mixture comprising 400 ppm of the δ-endotoxin CryIA(b). After the spray coating has dried on, the plants are infected with Nephotettix cincticeps of the 2nd and 3rd stages. The seedlings of plot (a) and (b) are then incubated at 20° C. The test is evaluated after 21 days.
(§3) The percentage reduction in population (% action) is determined by comparing the number of dead pests on the plants of plot (a) with that on the plants of plot (b).
Rice plants on a plot (a) expressing the δ-endotoxin CryIA(c) and conventional rice plants on a plot (b) are sprayed with a spray mixture comprising 400 ppm thiamethoxam. Immediately afterwards, plot (b) is treated with an emulsion spray mixture comprising 400 ppm of the δ-endotoxin CryIA(c). After the spray coating has dried on, the plants are infected with Nephotettix cincticeps of the 2nd and 3rd stages. The seedlings of plot (a) and (b) are then incubated at 20° C. The test is evaluated after 21 days.

Nilaparvata lugens = assay: Rice plant spray test, action against Nilaparvata lugens; settings: 20° C, 21 days; for control (percentage reduction in population, % action): infected, then spray 400 ppm; for control level: plot (b) conventional rice plants, 400 ppm compound
Experimental: Rice plants on a plot (a) expressing the δ-endotoxin CryIA(b) and conventional rice plants on a plot (b) are infected with Nilaparvata lugens, subsequently sprayed with a spray mixture comprising 400 ppm thiamethoxam. Immediately afterwards, plot (b) is treated with an emulsion spray mixture comprising 400 ppm of the δ-endotoxin CryIA(b). The seedlings of plot (a) and (b) are then incubated at 20° C. The test is evaluated after 21 days.
as §3
Rice plants on a plot (a) expressing the δ-endotoxin CryIA(c) and conventional rice plants on a plot (b) are infected with Nilaparvata lugens, subsequently sprayed with a spray mixture comprising 400 ppm thiamethoxam. Immediately afterwards, plot (b) is treated with an emulsion spray mixture comprising 400 ppm of the δ-endotoxin CryIA(c). The seedlings of plot (a) and (b) are then incubated at 20° C. The test is evaluated after 21 days.

[1] = transgenic cotton expressing δ-endotoxin CryIIIA, compared with non-transgenic plant
[2] = transgenic cotton expressing δ-endotoxin CryIa(c)
[3] = plot (a) rice plants expressing δ-endotoxin CryIA(b)
[4] = plot (a) rice plants expressing δ-endotoxin CryIA(c)
[5] = then 400 ppm δ-endotoxin CryIA(b)
[6] = then 400 ppm δ-endotoxin CryIA(c)

## CN1COCN(Cc2cnc(Cl)s2)/C1=N\[N+](=O)[O-] [thiamethoxam, 5-(2-Chlorthiazol-5-ylmethyl)-3-methyl-4-nitroimino-perhydro-1,3,5-oxadiazin]
Anthonomus grandis; [1]
  control of the tested insects (percentage reduction in population or feeding damage, % action): superior
Anthonomus grandis; [2]
  control of the tested insects (percentage reduction in population or feeding damage, % action): superior
Heliothis virescens; [1]
  control of the tested insects (percentage reduction in population or feeding damage, % action): superior
Heliothis virescens; [2]
  control of the tested insects (percentage reduction in population or feeding damage, % action): superior
Nephotettix cincticeps; [3]
  control (percentage reduction in population, % action): Improved control
Nephotettix cincticeps; [4]
  control (percentage reduction in population, % action): Improved control
Nephotettix cincticeps; [5]
  control level: ≤ 60%
Nephotettix cincticeps; [6]
  control level: ≤ 60%
Nilaparvata lugens; [3]
  control (percentage reduction in population, % action): Improved control
Nilaparvata lugens; [4]
  control (percentage reduction in population, % action): Improved control
Nilaparvata lugens; [5]
  control level: ≤ 60%
Nilaparvata lugens; [6]
  control level: ≤ 0%
